One data set addresses T1, recombinant HIV-1 RT (Human immunodeficiency virus type 1 group M subtype B, UniProt P04585).
T1 construct: recombinant HIV-1 RT; purchased Roche
Briefly: HIV-1 RT RDDP inhibitory activity (Roche colorimetric immunoassay kit). It counts as biochemical. As to the method: As described in our previous work, HIV-1 reverse transcriptase (RT) activity was measured using the Roche colorimetric immunoassay kit. DNA synthesis by RT was quantified after 2 h incubation at 37 °C. The reaction included PolyA:oligodT RNA template, recombinant HIV-1 RT, and various substrates, with biotin-DIG-labeled DNA detected via streptavidin-coated ELISA wells. Inhibitor activity was tested by pre-incubating RT with compounds before substrate addition. The absorbance at 405 nm was measured to calculate enzyme activity and IC50 values. […] The experiment was performed in triplicate. The data analysis for obtaining the IC50 values and standard deviation (SD)was performed using nonlinear regression analysis, specifically fitting the dose–response curves to a sigmoidal model (log(inhibitor) vs. response) using the software GraphPad Prism 10.

Data set [1] addresses T2, HIV-1 RT-associated RNase H (Human immunodeficiency virus type 1 group M subtype B, UniProt P04585).
T2 construct: quantification of RNase H activity of reverse transcriptase (RT) enzyme
In words: RT RNase H polymerase-independent cleavage assay. It counts as biochemical. As to the method:
The HIV-1 RT-associated RNase H activity was measured following the protocol cited by the detection and quantification of RNase H activity of reverse transcriptase (RT) enzyme with a hybrid substrate formed by a fluorescein labeled RNA annealed with Dabcyl DNA. In this assay the reaction mixture containing tris–HCl, pH 7.8, MgCl2, dithiothreitol (DTT), KCl, hybrid RNA/DNA (5′-[…]-3′-fluorescein,5′-[…]-3′-Dabcyl), and RT were incubated for 1 h at 37 °C, the reaction was stopped by the addition of EDTA, and products were measured with a Victor 3 (Perkin PerkinElmer VICTOR X3 Multilabel Counter Microplate Reader, Cridersville, OH, USA ) at 490/528 nm. The experiment was performed in triplicate. IC50 values were determined through nonlinear regression analysis, where the dose–response curves were fitted to a sigmoidal model (log(inhibitor) vs. response) using GraphPad Prism 10 software.

A short description of data set [2]: Cellular viability, CCK cell viability assay. The note with it: human, MRC-5 cells (normal fetal lung fibroblasts). Type of data set: cell-based. As to the method: For the evaluation of cytotoxicity, compounds 1–15 were tested in the human normal fetal lung fibroblast MRC-5 cell line using the CCK cell viability assay. Each substance was tested at three different concentrations: 0.1 μM, 1 μM, and 10 μM. […] However, since all viability percentages were above 50%, no CC50 value could be calculated.
The normal human fetal lung fibroblast MRC-5 cell line (SI , 7)was cultured under standard conditions. Compounds were tested at 10 μM, 1 μM, and 0.1 μM. Results are expressed as mean ± standard deviation (SD) from triplicate experiments.
The previously established human normal MRC‐5 (human fetal lung fibroblasts; RRID:CVCL_0440)
approved for vaccine production was obtained, stored and used in a routine manner (1,2) in the
Laboratory of Pharmacology, School of Pharmacy, Aristotle University of Thessaloniki, Greece
(Laboratory of Ioannis S. Vizirianakis, Associate Professor in Molecular Pharmacology and
Pharmacogenomics) (<25 passages was applied). […]
Cell line MRC-5 information
ID/Proper Citation: (RRID:CVCL_0440)
URL: https://web.expasy.org/cellosaurus/CVCL_0440

In data set [3] the target is T2, HIV-1 RT-associated RNase H. Also on record: method as in PMID 25092689. Particulars: cited from earlier work.
A further data set concerns HIV-1. The note with it: cited from earlier work.

Like-named read-outs stand apart in the source and are kept apart here.

The term IC50 denotes the midpoint of a concentration-inhibition curve. In general, inhibition refers to the change of the read-out against control, counted positive when it falls. For orientation: viability means a read-out of living cells in per cent, often relative to untreated cells. The low end stands for more harm to the cells, the high end for less harm to the cells.

With `O=C1CSC(c2ccccc2O)N1c1nc(-c2cccc(S(=O)(=O)N3CCCC3)c2)cs1` (stereo not shown) [Compound 5, 2-(2-Hydroxyphenyl)-3-(4-(3-(pyrrolidin-1-ylsulfonyl)phenyl)thiazol-2-yl)thiazolidin-4-one], the IC50 on recombinant HIV-1 RT was above 4 µM; in data set [1], 18 ± 2.1 µM. In addition, the inhibition at 4 µM at recombinant HIV-1 RT came to 45.2%. In addition, the viability at 24 h, 10 µM in data set [2] was above 50%.

Take `COc1ccc(OC)c(C2SCC(=O)N2c2nc(-c3cccc(S(=O)(=O)N4CCCC4)c3)cs2)c1` (stereo not shown) [Compound 4, 2-(2,5-Dimethoxyphenyl)-3-(4-(3-(pyrrolidin-1-ylsulfonyl)phenyl)thiazol-2-yl)thiazolidin-4-one]: on recombinant HIV-1 RT, the IC50 amounted to 0.58 ± 0.07 µM and the inhibition at 4 µM came out at 86.6%. Moreover, the midpoint of inhibition in data set [1], the IC50, lay at 1.47 ± 0.2 µM. In data set [2], the viability at 24 h, 10 µM was above 50%.

Regarding `O=C1CSC(c2c(F)cccc2F)N1c1nc2cc(-c3ccccc3)c(-c3ccccc3)cc2s1` (stereo not shown) [Compound 14, 2-(2,6-Difluorophenyl)-3-(5,6-diphenylbenzo[d]thiazol-2-yl)thiazolidin-4-one], on recombinant HIV-1 RT, the IC50 was above 4 µM and the inhibition at 4 µM was found to be 7.9%. In addition, in data set [1], the IC50 was above 50 µM. This molecule came in with a viability at 24 h, 10 µM in data set [2] above 50%.

Consider `N#Cc1ccc2nc(N3C(=O)CSC3c3c(F)cccc3F)sc2c1` (stereo not shown) [Compound 13, 2-(2-(2,6-Difluorophenyl)-4-oxothiazolidin-3-yl)benzo[d]thiazole-6-carbonitrile], for which, at recombinant HIV-1 RT, the IC50 is above 4 µM and the inhibition at 4 µM turned out to be 21.4%. Besides, in data set [1], inhibition was half-maximal at 16.4 ± 1.7 µM (IC50). For the same molecule, the viability at 24 h, 10 µM in data set [2] was determined as 55%.

In the case of `O=C1CSC(c2c(F)cccc2F)N1c1nc(-c2cccc(S(=O)(=O)N3CCCC3)c2)cs1` (stereo not shown) [Compound 3, 2-(2,6-Difluorophenyl)-3-(4-(3-(pyrrolidin-1-ylsulfonyl)phenyl)thiazol-2-yl)thiazolidin-4-one], the IC50 on recombinant HIV-1 RT was above 4 µM; in data set [1], above 50 µM. Further, the inhibition at 4 µM on recombinant HIV-1 RT is 24.3%. The same molecule returned a viability at 24 h, 10 µM in data set [2] above 50%.

As to `COc1ccc(OC)c(C2SCC(=O)N2c2nc(-c3ccc(S(=O)(=O)N4CCOCC4)cc3)cs2)c1` (stereo not shown) [Compound 6, 2-(2,5-Dimethoxyphenyl)-3-(4-(4-(morpholinosulfonyl)phenyl)thiazol-2-yl)thiazolidin-4-one], at recombinant HIV-1 RT, the IC50 came to 0.72 ± 0.06 µM and the inhibition at 4 µM was 81.3%. In data set [1], the midpoint of inhibition, the IC50, lay at 2.5 ± 0.3 µM. The molecule further gave a viability at 24 h, 10 µM in data set [2] above 50%.

As to `O=C1CSC(c2ccc(F)cc2)N1c1nc(-c2ccc(S(=O)(=O)N3CCOCC3)cc2)cs1` (stereo not shown) [Compound 7, 2-(4-Fluorophenyl)-3-(4-(4-(morpholinosulfonyl)phenyl)thiazol-2-yl)thiazolidin-4-one], on recombinant HIV-1 RT, the IC50 is above 4 µM and the inhibition at 4 µM is 12%. For the same molecule, the IC50 in data set [1] was above 50 µM. In addition, in data set [2], the viability at 24 h, 10 µM is above 50%.

As to `O=C1CSC(c2c(F)cccc2F)N1c1nc(-c2ccc(F)cc2)cs1` (stereo not shown) [Compound 12, 2-(2,6-Difluorophenyl)-3-(4-(4-fluorophenyl)thiazol-2-yl)thiazolidin-4-one], the IC50 on recombinant HIV-1 RT is above 4 µM; in data set [1], above 50 µM. Besides, at recombinant HIV-1 RT, the inhibition at 4 µM was determined as 5.86%. Besides, in data set [2], the viability at 24 h, 10 µM was above 50%.

For the molecule `O=C1CSC(c2c(Cl)cccc2Cl)N1c1nc(-c2ccc(F)cc2)cs1` (stereo not shown) [Compound 10, 2-(2,6-Dichlorophenyl)-3-(4-(4-fluorophenyl)thiazol-2-yl)thiazolidin-4-one], at recombinant HIV-1 RT, the IC50 is above 4 µM and the inhibition at 4 µM amounted to 1.59%. The molecule further gave an IC50 in data set [1] above 50 µM. This molecule also yielded a viability at 24 h, 10 µM in data set [2] above 50%.

In the case of `O=C1CSC(c2c(F)cccc2Cl)N1c1nc2ccc(C(F)(F)F)cc2s1` (stereo not shown) [Compound 11, 2-(2-Chloro-6-fluorophenyl)-3-(6-(trifluoromethyl)benzo[d]thiazol-2-yl)thiazolidin-4-one], the results for the IC50 (on recombinant HIV-1 RT; in data set [1]) were 0.32 ± 0.03 µM and 25.4 ± 0.4 µM, respectively. Moreover, the inhibition at 4 µM at recombinant HIV-1 RT is 92.4%. In data set [2], this molecule came in with a viability at 24 h, 10 µM above 50%.

For the molecule `O=C1CSC(c2ccc(F)cc2)N1c1nc(-c2cccc(S(=O)(=O)N3CCCC3)c2)cs1` (stereo not shown) [Compound 2, 2-(4-Fluorophenyl)-3-(4-(3-(pyrrolidin-1-ylsulfonyl)phenyl)thiazol-2-yl)thiazolidin-4-one], on recombinant HIV-1 RT, the IC50 was above 4 µM and the inhibition at 4 µM worked out at 8.36%. The IC50 in data set [1] was above 50 µM. For the same molecule, in data set [2], the viability at 24 h, 10 µM was above 50%.

Consider `O=C1CSC(c2c(Cl)cccc2Cl)N1c1nc2ccc(C(F)(F)F)cc2s1` (stereo not shown) [Compound 15, 2-(2,6-Dichlorophenyl)-3-(6-(trifluoromethyl)benzo[d]thiazol-2-yl)thiazolidin-4-one], for which, on recombinant HIV-1 RT, the IC50 is above 4 µM and the inhibition at 4 µM worked out at 8.52%. In data set [1], the IC50 is above 50 µM. For the same molecule, the viability at 24 h, 10 µM in data set [2] amounted to 57.9%.

As for `O=C1CSC(c2c(F)cccc2F)N1c1nc(-c2ccc(S(=O)(=O)N3CCOCC3)cc2)cs1` (stereo not shown) [Compound 8, 2-(2,6-Difluorophenyl)-3-(4-(4-(morpholinosulfonyl)phenyl)thiazol-2-yl)thiazolidin-4-one], at recombinant HIV-1 RT, the IC50 is above 4 µM and the inhibition at 4 µM turned out to be 33%. The molecule further showed a half-maximal inhibitory concentration (IC50) in data set [1] above 50 µM. In addition, in data set [2], the viability at 24 h, 10 µM was above 50%.

Take `CCOC(=O)C(=O)CC(=O)/C=C/c1cccn1Cc1ccccc1Cl` [RDS1759]: the IC50 in data set [3] (reference inhibitor) was 7.3 ± 0.1 µM. Also, in data set [3] (selective), the “Inhibition of RNase H activity” value was “low micromolar range”. In addition, the “Inhibition of viral replication” value in the data set with HIV-1 is given as “low micromolar range”.

Regarding `O=C1CSC(c2ccc(F)cc2)N1c1cccc(S(=O)(=O)Nc2nccs2)c1` (stereo not shown) [Compound 1, 3-(2-(4-Fluorophenyl)-4-oxothiazolidin-3-yl)-N-(thiazol-2-yl)benzenesulfonamide], the results for the IC50 (on recombinant HIV-1 RT; in data set [1]) were 2.23 ± 0.15 µM and 14.3 ± 1.3 µM, respectively. The inhibition at 4 µM on recombinant HIV-1 RT turned out to be 68.3%. In data set [2], the viability at 24 h, 10 µM was above 50%.

Regarding `O=C1CSC(c2c(Cl)cccc2Cl)N1c1nc(-c2ccc(S(=O)(=O)N3CCOCC3)cc2)cs1` (stereo not shown) [Compound 9, 2-(2,6-Dichlorophenyl)-3-(4-(4-(morpholinosulfonyl)phenyl)thiazol-2-yl)thiazolidin-4-one], at recombinant HIV-1 RT, the IC50 is above 4 µM and the inhibition at 4 µM worked out at 2.48%. The molecule further showed an IC50 in data set [1] of 9.01 ± 0.1 µM. In data set [2], this molecule came in with a viability at 24 h, 10 µM above 50%.

As for `Cc1ccnc2c1NC(=O)c1cccnc1N2C1CC1` [Nevirapine, reference compound], the inhibition at 4 µM at recombinant HIV-1 RT was found to be 93.8%.

The values above are taken from publication PMC11946194, “Rational Design, Synthesis, and Biological Evaluation of Novel Thiazole/Thiazolidinones Multitarget Anti-Human Immunodeficiency Virus Molecules” (Pharmaceuticals, 2025).
